Measured values from paper PMC9897788, “Design, synthesis and cytotoxic evaluation of novel bis-thiazole derivatives as preferential Pim1 kinase inhibitors with in vivo and in silico study” (Journal of Enzyme Inhibition and Medicinal Chemistry, 2023).

How the values were obtained:
Assay in all cases: NCI 60 cell one-dose screening (SRB)
Assay type in all cases: cell-based
UACC-257 = settings: Homo sapiens; UACC-257, Melanoma; single dose 10 µM, 48 h; read-out: Percentage of cellular growth inhibition
Experimental: (§1) The 60 cancerous cell panel screening was performed following the Developmental Therapeutics Program (DTP) of the National Cancer Institute (NIH-NCI), USA. A single dose of 10 µM was used to perform the screening at 48 h incubation and the results were achieved as cancerous cell growth percentage relative to the no-drug control that was converted to an inhibition percentage by subtracting from 100.The cancerous cell lines were grown in RPMI 1640 medium containing 5% foetal bovine serum and 2 mM L-glutamine at 37 °C, 5% CO2, 95% air and 100% relative humidity for 24 h prior to addition of the tested compounds. After 24 h, two plates of each cell line were fixed in situ with TCA to represent a measurement of the cell population for each cell line at the time of drug addition (Tz). Compounds were dissolved in DMSO at 400-fold the desired final maximum test concentration and stored frozen prior to use. At the time of drug addition, an aliquot of frozen concentrate was thawed and diluted to twice the desired final maximum test concentration with complete medium containing 50 µg/mL gentamicin. Aliquots of 100 µL of the compounds dilution was added to the appropriate micro titre wells already containing 100 µL of medium, resulting in the required final drug concentrations of 10 µM. Following compounds addition, the plates were incubated for an additional 48 h at 37 °C, 5% CO2, 95% air, and 100% relative humidity. For adherent cells, the assay was terminated by the addition of cold TCA. Cells were fixed in situ by the gentle addition of 50 µL of cold 50% (w/v) TCA (final concentration, 10% TCA) and incubated for 60 min at 4 °C. The supernatant was discarded, and the plates were washed five times with tap water and air dried. Sulphorhodamine B (SRB) solution (100 µL) at 0.4% (w/v) in 1% acetic acid is added to each well, and plates are incubated for 10 min at room temperature. After staining, unbound dye was removed by washing five times with 1% acetic acid and the plates were air dried. Bound stain was subsequently solubilised with 10 mM trizma base, and the absorbance was read on an automated plate reader at a wavelength of 515 nm. For suspension cells, the methodology was the same except that the assay was terminated by fixing settled cells at the bottom of the wells by gently adding 50 µL of 80% TCA (final concentration, 16% TCA). Using the seven absorbance measurements [time zero, (Tz), control growth, I, and test growth in the presence of drug at the five concentration levels (Ti)], the percentage growth was calculated as: [(Ti−Tz)/(C−Tz)]×100 for concentrations for which Ti>/=Tz [(Ti−Tz)/Tz]×100 for concentrations for which Ti<Tz.

SW-620 = settings: Homo sapiens; SW-620, Colon Cancer; single dose 10 µM, 48 h; read-out: Percentage of cellular growth inhibition
Experimental: as §1

A498 = settings: Homo sapiens; A498, Renal Cancer; single dose 10 µM, 48 h; read-out: Percentage of cellular growth inhibition
Experimental: as §1

MALME-3M = settings: Homo sapiens, Melanoma, single dose 10 µM, 48 h, read-out: Percentage of cellular growth inhibition
Experimental: as §1

HOP-62 = settings: Homo sapiens; HOP-62, Non-Small Cell Lung Cancer; single dose 10 µM, 48 h; read-out: Percentage of cellular growth inhibition
Experimental: as §1

SK-MEL-5 = settings: Homo sapiens; SK-MEL-5, Melanoma; single dose 10 µM, 48 h; read-out: Percentage of cellular growth inhibition
Experimental: as §1

MDA-MB-231/ATCC = settings: Homo sapiens, Breast Cancer, single dose 10 µM, 48 h, read-out: Percentage of cellular growth inhibition
Experimental: as §1

HS 578T = settings: Homo sapiens, Breast Cancer, single dose 10 µM, 48 h, read-out: Percentage of cellular growth inhibition
Experimental: as §1

NCI-H522 = settings: Homo sapiens; NCI-H522, Non-Small Cell Lung Cancer; single dose 10 µM, 48 h; read-out: Percentage of cellular growth inhibition
Experimental: as §1

M14 = settings: Homo sapiens; M14, Melanoma; single dose 10 µM, 48 h; read-out: Percentage of cellular growth inhibition
Experimental: as §1

SF-268 = settings: Homo sapiens; SF-268, CNS Cancer; single dose 10 µM, 48 h; read-out: Percentage of cellular growth inhibition
Experimental: as §1

KM12 = settings: Homo sapiens; KM12, Colon Cancer; single dose 10 µM, 48 h; read-out: Percentage of cellular growth inhibition
Experimental: as §1

EKVX = settings: Homo sapiens, Non-Small Cell Lung Cancer, single dose 10 µM, 48 h, read-out: Percentage of cellular growth inhibition
Experimental: as §1

RPMI-8226 = settings: Homo sapiens; RPMI-8226, Leukemia; single dose 10 µM, 48 h; read-out: Percentage of cellular growth inhibition
Experimental: as §1

U251 = settings: Homo sapiens, U-251; U251, CNS Cancer; single dose 10 µM, 48 h; read-out: Percentage of cellular growth inhibition
Experimental: as §1

HCT-116 = settings: Homo sapiens; HCT-116, Colon Cancer; single dose 10 µM, 48 h; read-out: Percentage of cellular growth inhibition
Experimental: as §1

A549/ATCC = settings: Homo sapiens, Non-Small Cell Lung Cancer, single dose 10 µM, 48 h, read-out: Percentage of cellular growth inhibition
Experimental: as §1

DU-145 = settings: Homo sapiens; DU-145, Prostate Cancer; single dose 10 µM, 48 h; read-out: Percentage of cellular growth inhibition
Experimental: as §1

PC-3 = settings: Homo sapiens; PC-3, Prostate Cancer; single dose 10 µM, 48 h; read-out: Percentage of cellular growth inhibition
Experimental: as §1

786-0 = settings: Homo sapiens; 786-0, Renal Cancer; single dose 10 µM, 48 h; read-out: Percentage of cellular growth inhibition
Experimental: as §1

OVCAR-5 = settings: Homo sapiens; OVCAR-5, Ovarian Cancer; single dose 10 µM, 48 h; read-out: Percentage of cellular growth inhibition
Experimental: as §1

Row | Structure (SMILES) | inhibition at 10 µM (UACC-257) | inhibition at 10 µM (SW-620) | inhibition at 10 µM (A498) | inhibition at 10 µM (MALME-3M) | inhibition at 10 µM (HOP-62) | inhibition at 10 µM (SK-MEL-5) | inhibition at 10 µM (MDA-MB-231/ATCC) | inhibition at 10 µM (HS 578T) | inhibition at 10 µM (NCI-H522) | inhibition at 10 µM (M14) | inhibition at 10 µM (SF-268) | inhibition at 10 µM (KM12) | inhibition at 10 µM (EKVX) | inhibition at 10 µM (RPMI-8226) | inhibition at 10 µM (U251) | inhibition at 10 µM (HCT-116) | inhibition at 10 µM (A549/ATCC) | inhibition at 10 µM (DU-145) | inhibition at 10 µM (PC-3) | inhibition at 10 µM (786-0) | other results
1 | Cc1csc(Nc2cccc(Nc3nc(C)cs3)c2)n1 [3a, N^1,N^3-bis(4-methylthiazol-2-yl)benzene-1,3-diamine] | -21.6% | -3.6% | 51.2% | -18.3% | 3.5% | 6.2% | 21.2% | 7.9% | 39.3% | -7.3% | 1.4% | 5.2% | 14.7% | 11.8% | 3.5% | 4.8% | -3.9% | 10.2% | 20.2% | -10.8% | inhibition at 10 µM (OVCAR-5): 7.1%
2 | Clc1ccc(-c2cs/c(=N\c3ccccc3)n2-c2cccc(-n3c(-c4ccc(Cl)cc4)cs/c3=N\c3ccccc3)c2)cc1 [8c, N,N’-(3,3’-(1,3-phenylene)bis(4–(4-chlorophenyl)thiazole-3(3H)-yl-2(3H)-ylidene))dianiline] | -8.4% | 36.7% | -16.3% | 6.7% | -3.3% | 3.1% | -4.5% | 10.4% | 42.2% | -10.7% | 12.1% | 8.8% | 4.9% | 37% | 11.1% | 15.7% | 27.7% | 19.2% | 28.9% | -6.9% | inhibition at 10 µM (OVCAR-5): -2.6%
3 | CCOC(=O)c1sc(Nc2cccc(Nc3nc(C)c(C(=O)OCC)s3)c2)nc1C [3c, Diethyl 2,2’-(1,3-phenylenebis(azanediyl))bis(4-methylthiazole-5-carboxylate)] | 10.3% | 11.4% | 52.7% | 15.2% | 1.2% | 55.1% | 20.8% | 14.7% | 26.7% | 14% | 14.8% | 12.2% | 38.6% | 37.7% | 16.7% | 43.5% | 12% | 16.2% | 22.9% | 5.5% | inhibition at 10 µM (OVCAR-5): 8%
4 | CCOc1ccc(/N=N/c2sc(Nc3cccc(Nc4nc(C)c(/N=N/c5ccc(OCC)cc5)s4)c3)nc2C)cc1 [5b, N^1,N^3-bis(5-((4-ethoxyphenyl)diazinyl)-4-methylthiazol-2-yl)benzene-1,3-diamine] | -9.2% | -0.3% | 13.5% | -6.9% | -1.3% | 0.8% | 6.7% | 2.2% | 12.9% | -7% | 4.5% | -0.8% | 6.5% | -7.2% | 3.3% | 3.8% | 12.5% | -3.9% | 6.2% | 6.6% | inhibition at 10 µM (OVCAR-5): 9%
5 | CC(=O)c1sc(Nc2cccc(Nc3nc(C)c(C(C)=O)s3)c2)nc1C [3b, 1,1’-(2,2’-(1,3-Phenylenebis(azanediyl))bis(4-methylthiazole-5,2-diyl))diethanone] | 11.3% | 37.5% | 72.3% | 30.2% | 22.2% | 44.2% | 19.3% | 47.3% | 53.8% | 48.7% | 28.9% | 39.8% | 31.2% | 32.1% | 34.3% | 55.8% | 34.2% | 54.6% | 48.7% | 44.3% | inhibition at 10 µM (OVCAR-5): 16.5%
6 | NC(=S)Nc1cccc(NC(N)=S)c1 [compound 2, 1,1′-(1,3-phenylene)bis(thiourea)] | 1.9% | -6.9% | -1.2% | 15.7% | -19.5% | 8.6% | 10.3% | -5% | 2.8% | -25.1% | 9.1% | 12.4% | -1.3% | -9.5% | 11.2% | -7% | 6.1% | -1.2% | -2.4% | -7.8% | inhibition at 10 µM (OVCAR-5): -3.6%
7 | c1ccc(/N=c2\scc(-c3ccccc3)n2-c2cccc(-n3c(-c4ccccc4)cs/c3=N\c3ccccc3)c2)cc1 [8a, N,N’-(3,3’-(1,3-phenylene)bis(4-phenylthiazole-3(3H)-yl-2(3H)-ylidene))dianiline] | -11.8% | -0.4% | -18.1% | 3% | -12.6% | 4% | -4.1% | 4.2% | 12.2% | -14.3% | 0.3% | 1.1% | 5.3% | -0.5% | 2.7% | -4.1% | -4.9% | -3.2% | 21.8% | -11.1% | inhibition at 10 µM (OVCAR-5): -2.9%
